# Measurements reported in US11071735B2, “Treatment of inflammatory conditions and autoimmune diseases with glucose uptake inhibitors” (Kadmon Corporation, LLC, priority 2017, dated 2021).
# Tests used:
# MCP-1 secretion = MCP-1 secretion of LPS-treated THP1 monocytes (ELISA); assay type: cell-based; conditions: THP1 cells, compound one hour prior to 16 hour 1 μg/ml LPS
# Protocol: (§1) In FIG. 5A, THP1 cells were activated with 1 μg/ml LPS for 16 hrs prior to a one-hour glycolysis assay (Example 2+Oligomycin). In FIG. 5B, THP1 cells were treated with Example 2 one hour prior to a 16 hour treatment with 1 μg/ml LPS, after which MCP-1 secretion into the media was measured by ELISA (R&D systems) and cell number measured by Cell Titer Glo (Promega).
# (§2) THP1 Monocyte assay: THP1 monocytic cancer cells were activated with 1 ug/ml LPS (Sigma-Aldrich). The previously described glycolysis assay was performed 16 hrs post-activation. For cytokine secretion, cells were pre-treated for one hour with GLUT inhibitors prior to 16 hours of 1 μg/ml LPS treatment.
# THP1 monocytes = assay: glycolysis assay in LPS-activated THP1 monocytes; assay type: cell-based; conditions: 1 μg/ml LPS 16 hrs, then one-hour glycolysis assay with oligomycin
# Protocol: as §1, §2
# [1] = system: phosphorylation of STAT1 and STAT3; assay: Western blot of STAT1/STAT3 phosphorylation in activated CD4 T cells; assay type: cell-based, human; conditions: 1 μM; CD4 T cells activated 48 hrs with IL-1β, TGF-β
# Protocol: FIG. 8. […] FIG. 8A. CD4 T cells were activated for 48 hrs in the presence of IL-1β, TGF-β and 1 μM of the Example 2 compound. Western blotting analysis was used to determine the activation status of Stat3, Stat1 and pS6K (as a marker of mTORC1 activity) and the expression of GLUT1 protein. FIG. 8B. CD4 T cells were activated for 48 hrs and treated with the indicated compounds for 1.5 or 4 hrs. Western blotting analysis was used to determine the activation status of Stat3, Stat1 and pS6K (as a marker of mTORC1 activity). GLUT1/3 inhibitors downregulate phosphorylation of STAT1 and STAT3, key signaling molecules in activated T cells. In FIG. 8A. CD4 T cells were activated for 48 hrs in the presence of IL-1β, TGF-β and 1 μM of the Example 2 compound. Western blotting analysis was used to determine the activation status of Stat3, Stat1 and pS6K (as a marker of mTORC1 activity) and the expression of GLUT1 protein. CD4 T cells were activated for 48 hrs and treated with the indicated compounds in FIG. 8B for 1.5 or 4 hrs. […] IL-17 levels were measured by ELISA (R&D systems, Human IL-17 Quantikine ELISA kit). Proliferation was measured by Cell Titer Glo (Promega). Intracellular staining was performed and analyzed using the Guava EasyCyte flow cytometer. […] Protein levels and phosphorylation status were assessed by western blot analysis using antibodies purchased from Cell Signaling.
# [2] = system: markers of Teff and Treg cells; assay: flow cytometry of cytokines and lineage transcription factors in activated CD4 T cells; assay type: cell-based, human; conditions: 1 μM; CD4 T cells activated 48 hrs with IL-1β, TGF-β
# Protocol: FIG. 7. […] FIG. 7A. CD4 T cells were activated for 48 hrs in the presence of IL-1β, TGF-β and 1 μM of the Example 2 compound. For the last 5 hrs, PMA/Ionomycin/Brefeldin A was added and intracellular staining for cytokines was performed. Flow cytometry was used to assess INFγ and IL-17A levels (gated on live cells). FIG. 7B. Cells were cultured and treated as in FIG. 7A, excluding PMA/Ionomycin/Brefeldin A treatment. Flow cytometry was used to assess levels of CD4 T cell lineage defining transcription factors.
# GLUT1 and GLUT3 inhibitors downregulate the markers of T effector cells but not T regulatory cells. In, CD4 T cells were activated for 48 hrs in the presence of […], TGF-β and 1 μM of compound Example 2. […] Flow cytometry was used to assess INFγ and IL-17A levels (gated on live cells) and quantification of percent positive cells positive is shown in FIG. 7A. […]
# T cell assays: Human CD4 T cells were purified using RossetteSep Human CD4 T cell Enrichment Cocktail. […] IL-17 levels were measured by ELISA (R&D systems, Human IL-17 Quantikine ELISA kit). Proliferation was measured by Cell Titer Glo (Promega). Intracellular staining was performed and analyzed using the Guava EasyCyte flow cytometer. […] Protein levels and phosphorylation status were assessed by western blot analysis using antibodies purchased from Cell Signaling.
# [3] = system: MOG-induced experimental autoimmune encephalitis; assay: mouse MOG-induced experimental autoimmune encephalitis (EAE) model; assay type: in vivo; conditions: compared to vehicle control
# From the text: In FIG. 4, Example 2 is shown to have efficacy against an in vivo mouse model of inflammation, MOG-induced experimental autoimmune encephalitis. Example 2 both delays the onset and lowers the end clinical score of inflammation in this model.
# Mouse Prophylactic MOG-EAE Model: Performed at Hooke laboratories.
smiles,measurement,setting,value
"CCOc1ccc2nc(-c3cccc(OCC(=O)NC(C)C)c3)nc(Nc3ccc(-c4cn[nH]c4)cc3)c2c1 [Ex. 2, 2-(3-(4-((4-(1H-pyrazol-4-yl)phenyl)amino)-6-ethoxyquinazolin-2-yl)phenoxy)-N-isopropylacetamide]",MCP-1 secretion,MCP-1 secretion,inhibits cytokine/chemokine secretion
same,glycolysis in LPS stimulated THP1 monocytes,THP1 monocytes,inhibit glycolysis
same,phosphorylation of STAT1 and STAT3,[1],downregulate the phosphorylation of STAT1 and STAT3
same,markers of Teff and Treg cells,[2],downregulate markers of Teff but not Treg cells
same,end clinical score,[3]; 30 mg/kg p.o. daily,lowered the end clinical score
same,onset of EAE,[3]; 30 mg/kg p.o. daily,delayed onset
same,end clinical score,[3]; 100 mg/kg p.o. daily,lowered the end clinical score
same,onset of EAE,[3]; 100 mg/kg p.o. daily,delayed onset
